According to PMC10552749, “Anti-methicillin-resistant Staphylococcus aureus and antibiofilm activity of new peptides produced by a Brevibacillus strain” (PeerJ, 2023):
≈ marks a conversion by molar mass, not a printed value. Where “and” joins values, the source holds several entries; their conditions need not be identical. Equal values may be shown once. Where no end group is shown, it is not given here.

Key:
[1] = tested on: MRSA isolate 1096; assay: microbe, parasite or virus in culture; format: cell-based; settings: Staphylococcus aureus, 24 h
Protocol: (§1) The assay was conducted in accordance with the guideline of the Clinical and Laboratory Standard Institute (CLSI). […] The cell suspension was prepared in a 20-fold dilution using Cation-Adjusted Mueller-Hinton broth (CAHMB) as a diluent. A total of 10 µL of the diluted bacterial preparation and 100 µL of pure substances (0.25–64 µg/mL) were loaded into the 96-well plates. The plates were incubated at 37 °C for 24 h. Control wells were performed for broth (CAMHB) and inoculum. Vancomycin was tested as a control drug. The experiment was performed in triplicate for each tested strain.

[2] = tested on: MRSA isolate 142; assay: microbe, parasite or virus in culture; format: cell-based; settings: Staphylococcus aureus, 24 h
Protocol: as §1

[3] = tested on: MRSA isolate 2468; assay: microbe, parasite or virus in culture; format: cell-based; settings: Staphylococcus aureus, 24 h
Protocol: as §1

[4] = tested on: S. aureus TISTR 517; assay: microbe, parasite or virus in culture; format: cell-based; settings: Staphylococcus aureus, TISTR517, 24 h
Protocol: as §1

[5] = tested on: MRSA isolate 1096; assay: microbe, parasite or virus in culture; format: cell-based, Staphylococcus aureus
Protocol: (§2) Wells of 9 mm were punched on the solid media surface by a sterile tip, and 100 µL of purified substance was loaded before incubating the plates at 37 °C for 24 h. […] The result was collected from three independent experiments in which the diameter of the zone of inhibition was measured by a vernier caliper and reported as mean ± SD ([Lei et al., 2020]). The significant difference was determined by Student’s t-test at a p-value of less than 0.05.

[6] = tested on: MRSA isolate 142; assay: microbe, parasite or virus in culture; format: cell-based, Staphylococcus aureus
Protocol: as §2

[7] = tested on: MRSA isolate 2468; assay: microbe, parasite or virus in culture; format: cell-based, Staphylococcus aureus
Protocol: as §2

[8] = tested on: S. aureus TISTR 517; assay: microbe, parasite or virus in culture; format: cell-based, Staphylococcus aureus
Protocol: as §2

[9] = tested on: S. aureus TISTR 517; assay: Inhibition of biofilm formation (crystal violet); format: cell-based; settings: Staphylococcus aureus, TISTR517, 48 h, read-out: IC50 of biofilm formation
Protocol: (§3) The cells were standardized using the same medium to achieve 1 × 10^8 CFU/mL. The cell suspension was mixed with peptide at various concentrations (0.5–256 µg/mL) in a 96-well plate. The plates were then incubated at 37 °C for 48 h. Then, the planktonic bacteria cells were removed from the plates by washing them with PBS. Thereafter, 100 µL of methanol was added to the plate to fix the biofilm-associated cells. The plates were dried and stained with 0.1% crystal violet for 15 min before rinsing twice with PBS. A total of 100 μL of […] was finally added to resolubilize the stained crystal violet. The plates were incubated at 37 °C for 30 min, and the supernatants were transferred to a new 96-well plate. The absorbance at 570 nm was measured by a microplate reader (Thermo Fisher Scientific Inc., Waltham, MA, USA) to determine the biofilm formation. […] One-way ANOVA was used to analyze the significant differences among treated samples compared to the untreated controls at various p-values.

[10] = tested on: MRSA isolate 2468; assay: Inhibition of biofilm formation (crystal violet); format: cell-based, Staphylococcus aureus
Protocol: as §3

[11] = tested on: MRSA isolate 2468; assay: Biofilm eradication assay; format: cell-based, Staphylococcus aureus; settings: vs untreated, p-value < 0.05
Protocol: (§4) The bacteria were standardized to achieve 1 × 10^8 CFU/mL, and 100 µL of cell suspension was transferred to a 96-well microplate. The plates were incubated at 37 °C for 48 h for biofilm formation. The free bacteria cells were removed from the plates by washing them with PBS. Peptide solutions at the concentrations (0.5–256 µg/mL) were added to the microplate and incubated at 37 °C for 24 h. Subsequently, PBS was used to rewash the plate, and 100 µL of PBS was loaded into each well. The plate was sonicated for 30 min at room temperature, and the samples were taken and made a ten-fold serial dilution. A total of 10 µL of the diluted samples was plated on MH agar for colony count. Vancomycin and untreated samples were used as the positive and negative controls. Only SCD media without bacteria was used as the blank ([Yuan et al., 2019]). The significant difference was evaluated by one-way ANOVA (p-value < 0.05) compared to untreated controls.

[12] = tested on: S. aureus TISTR 517 and MRSA isolate 142, 1096, and 2468; assay: microbe, parasite or virus in culture; format: cell-based, Staphylococcus aureus
Protocol: as §1

[13] = tested on: S. aureus TISTR 517 and MRSA isolate 2468; assay: Biofilm eradication assay, statements for both tested bacteria; format: cell-based, Staphylococcus aureus
Protocol: as §4

[14] = tested on: S. aureus and MRSA biofilms; settings: statically grown biofilms of S. aureus and MRSA; ref Zapotoczna et al., 2017; cited from earlier work
Excerpt: Biofilm is an important virulence mechanism in many bacterial pathogens. The cells irreversibly adhere to the biotic and abiotic surfaces and are surrounded by an extracellular matrix in response to stress conditions ([Flemming & Wuertz, 2019]). […] S. aureus and MRSA develop a biofilm to decrease or prevent the diffusion of antimicrobial drugs into the cells, resulting in more drug r ...

[15] = ref Baczek, Walijewski & Kaliszan, 2008, cited from earlier work
[16] = tested on: human erythrocytes; format: cell-based
Protocol: The Ethics Committee in Human Research at Walailak University has approved this study (WUEC-22-242-01; 15 August 2022). The written consent was obtained from a subject involved in the research. Whole blood (5 mL) was collected from a human volunteer and centrifuged at 700× g for 8 min. The pellets were washed 3 times with PBS before diluting to obtain 0.5% erythrocyte suspension. A total of 50 µL of erythrocytes was added to a 96-well plate, and the purified peptide in PBS (50 μL) was mixed to achieve the final peptide concentration of 1, 2, 4, 8, 16, 32, 64, 128, 256, and 512 µg/mL. The mixtures were then incubated at 37 °C for 1 h. They were further centrifuged at 1,000× g for 10 min, and the supernatant was loaded into a microplate before measuring the absorbance at 540 nm. The positive and negative controls were 1% Triton X-100 and untreated samples, respectively, while PBS was used as a blank control. This assay was carried out in three independent experiments. The percent hemolysis was calculated by the following equation:
%Hemolysis=[Asam−Ablank]/[Apos−Ablank]×100 where Asam is the sample absorbance, Apos and Ablank are the absorbance of positive and blank controls, respectively ([Oddo & Hansen, 2017]).

[17] = Staphylococcus aureus, read-out: Inhibition zone
[18] = Vancomycin (30 μg), mean ± SD, n = 3

Compound: CN[C@H](CC(C)C)C(=O)N[C@H]1C(=O)N[C@@H](CC(N)=O)C(=O)N[C@H]2C(=O)N[C@H]3C(=O)N[C@H](C(=O)N[C@H](C(=O)O)c4cc(O)cc(O)c4-c4cc3ccc4O)[C@H](O)c3ccc(c(Cl)c3)Oc3cc2cc(c3O[C@@H]2O[C@H](CO)[C@@H](O)[C@H](O)[C@H]2O[C@H]2C[C@](C)(N)[C@H](O)[C@H](C)O2)Oc2ccc(cc2Cl)[C@H]1O [Vancomycin]
- MBC [1]: 2 µg/mL (≈ 1.38 µM)
- MIC [1]: 2 µg/mL (≈ 1.38 µM)
- MBC [2]: 2 µg/mL (≈ 1.38 µM)
- MIC [2]: 2 µg/mL (≈ 1.38 µM)
- MBC [3]: 2 µg/mL (≈ 1.38 µM)
- MIC [3]: 2 µg/mL (≈ 1.38 µM)
- MBC [4]: 2 µg/mL (≈ 1.38 µM)
- MIC [4]: 2 µg/mL (≈ 1.38 µM)
- zone of inhibition at 30 µg/disc [5, 17]: 23.1 ± 0.36 mm
- Inhibition zone [5, 18]: 23.10 mm
- zone of inhibition at 30 µg/disc [6, 17]: 23.5 ± 0.59 mm
- Inhibition zone [6, 18]: 23.47 mm
- zone of inhibition at 30 µg/disc [7, 17]: 23.9 ± 0.1 mm
- Inhibition zone [7, 18]: 23.90 mm
- zone of inhibition at 30 µg/disc ([8]; Staphylococcus aureus, TISTR517, read-out: Inhibition zone): 20.7 ± 0.23 mm
- Inhibition zone [8, 18]: 20.73 mm
- IC50 [9]: 4.84 µg/mL (≈ 3.34 µM)
- Biofilm formation (% of untreated) after treatment ([10]; 4 μg/mL or 2× MIC, 37 °C 48 h, crystal violet, A570, mean ± SD of three experiments): 68.25 ± 4.21%
- IC50 ([10]; Staphylococcus aureus, 48 h, read-out: IC50 of biofilm formation): 5.91 µg/mL (≈ 4.08 µM)
- Concentration that significantly reduced persistent cells in biofilm [11]: 64 µg/mL
- MBC ([12]; Staphylococcus aureus): 2 µg/mL (≈ 1.38 µM)
- MIC ([12]; Staphylococcus aureus): 2 µg/mL and 1.38 µM
- MBC ([12]; against all tested bacteria): 2 µg/mL (≈ 1.38 µM)
- MIC ([12]; against all tested bacteria): 2 µg/mL (≈ 1.38 µM)
- Concentration to destroy mature biofilms as multiple of MIC ([13]; 128 μg/mL relative to MIC): 64 × MIC
- Concentration that completely eradicated biofilm (killed persistent cells) ([13]; 48 h preformed biofilms, 24 h treatment, both bacteria): 128 µg/mL
- Concentration for half-maximal inhibition of biofilms [14]: 16.0 to 68.2 µg/mL

Compound: DAEFGHDSG-NH2 [literature model peptide for RPC retention]
- RPC retention time ([15]; isocratic elution by 0.1% TFA and ACN): 3.75 min
- pI [15]: 4.02

Compound: MFLVVKVLKYVV [BrSPR19-P2]
- Therapeutic index (TI) of hemolysis / hemolysis index threshold [16]: 32
